Measured values from the pKa sets of Baltruschat and Czodrowski (2020).

Conditions: acidic group

Row | SMILES | pKa
1 | NS(=O)(=O)c1ccc(Cl)c(Cl)c1 | 8.94
2 | Cc1[nH]c(C(=O)[O-])c(C(=O)O)[nH+]1 | 4.54
3 | Sc1nc2cc3ccccc3cc2[nH]1 | 9.84
4 | CN(C)c1cccc2c(S(=O)(=O)NCC(=O)[O-])cccc12 | 11.7
5 | Cc1cc(O)cc(C)c1[N+](=O)[O-] | 8.25
6 | C=C=CC(=O)O | 3.96
7 | O=S(=O)(Nc1ccc(Cl)cc1)C(F)(F)F | 3.9
8 | O=C(O)[C@@H]1O[C@H](Oc2ccc(Br)cc2)[C@@H](O)[C@H](O)[C@H]1O | 3.02
9 | Nc1ccc(S(=O)(=O)Nc2cccnn2)cc1 | 7.06
10 | O=P([O-])(O)C([NH2+]Cc1cccnc1)c1ccccc1O (stereo not given) | 5.15
11 | NS(=O)(=O)c1ccc(F)cc1 | 9.34
12 | Cn1c[nH+]cc1C[C@H]([NH3+])C(=O)O | 1.84
13 | CCOCCn1c(CN2CC[NH+](CCCCn3cc(C(=O)O)cn3)CC2)[nH+]c2ccccc21 | 3.8
14 | CCOc1cccc(C(=O)O)c1C | 3.73
15 | [NH3+]CCCCC#CC#CCCC(=O)O | 4.15
16 | O=c1cc(O)c2ccccc2o1 | 4.1
17 | CO[n+]1ccccc1O | -1.3
18 | NC1=NS(=O)(=O)[N-]c2nc[nH]c21 | 12.2
19 | Nc1ccc(O)cc1O | 9.3
20 | Cc1ccnc(NS(=O)(=O)c2ccc(N)cc2)n1 | 6.59

Row | SMILES | pKa
21 | CCC(C)C[C@H]([NH3+])C(=O)O (stereo not given in full) | 3.25
22 | O=[N+]([O-])c1n[nH]c(Oc2ccccc2)n1 | 4.2
23 | O=C(O)C1CCCC[NH2+]1 (stereo not given) | 2.5
24 | CCNC(=O)/C=C(/[70SH])c1ccccc1 | 4.73
25 | O=[N+]([O-])/C(=N/O)c1ccc(Cl)cc1 | 6.6
26 | N/C(=N\O)c1ncnc2nc[nH]c12 | 9.4
27 | CC1(C)NC(=S)NC1=S | 7.65
28 | COc1ccc(-c2nc3nnc(SC)nc3[nH]2)c(OC)c1 | 7.69
29 | Cn1n[n+](C)nc1N | 2.5
30 | Cc1cc(C(=O)O)c(C)o1 | 4.64
31 | O=C(c1ccc([N+](=O)[O-])cc1)c1cc[nH]n1 | 11.7
32 | Cc1cc(O)[nH+]c(O)[nH+]1 | 1.2
33 | Cc1cccc(S(N)(=O)=O)c1 | 9.51
34 | O=C([O-])C[N+](=O)[O-] | 8.9
35 | SCc1c[nH]cn1 | 9.54
36 | CC(=O)[n+]1cccc(C#N)c1 | 1.62
37 | C#CCC(=O)O | 3.31
38 | O=C1NC(=O)C(c2ccccc2)C1=O (stereo not given) | 3.4
39 | CN1C(=O)C(C)(C)NC1=S | 10.8
40 | CN(C)c1ccc(NC=S)cc1 | 12

Row | SMILES | pKa
41 | Cc1cc(/N=N/c2ccc(S(N)(=O)=O)cc2)cc(C(=O)[O-])c1O | 10.2
42 | S=C(NCc1ccccc1)c1ccccc1 | 12.2
43 | CC(C)(C)O | 17
44 | [O-]c1cccc(O)c1 | 11.3
45 | C/C=C(\C(=O)O)c1ccc([N+](=O)[O-])cc1 | 5
46 | Nc1c2ccccc2[nH+]c2cc(O)ccc12 | 6.63
47 | Cc1cccc(O)c1C(=O)Oc1ccccc1 | 8.63
48 | Cc1cc(C)c(/N=N/c2c(C)cc(O)cc2C)c(C)c1 | 9.1
49 | O=C(Cc1ccccc1)c1cc[n+](Cc2cccc([N+](=O)[O-])c2)cc1 | 8.68
50 | Cc1ccc(O)c(Cc2cc([N+](=O)[O-])ccc2[O-])c1 | 11.5
51 | CC(=O)Nc1cccc(O)c1 | 9.38
52 | c1nc(NC2CCCCC2)c2[nH]cnc2n1 | 10.2
53 | C[NH+](C)c1ccccc1C(=O)O | 1.4
54 | O=C(O)[C@H](P)CC[C@H](P)C(=O)O | 3.54
55 | C[NH+](C)CCc1cccc(O)c1 | 9.24
56 | O=C(O)c1cccc(Cl)c1 | 3.8
57 | CC(C)(C)C#CC(=O)O | 2.66
58 | O=C(/C(=N/O)c1ccccc1)c1ccccc1 | 8.8
59 | Sc1ccc2ccccc2[nH+]1 | -1.44

Same assay, conditions: basic group

Row | SMILES | pKa
60 | COc1ccc(C2CN2)cc1 (stereo not given) | 8.7
61 | CC1CCN(c2cc[nH+]cc2)CC1 | -0.56
62 | CCCCCCCCCCN(CC(C)O)CC(O)CC (stereo not given) | 6.7
63 | CCC(C)N(C)C (stereo not given) | 10.4
64 | COC(=O)C([NH3+])Cc1c[nH]cn1 (stereo not given) | 5.41
65 | OCCCCc1ccncc1 | 6.01
66 | Nc1c(Br)cccc1Br | 0.36
67 | O=C1C=CN2C[C@@H]3C[C@@H](CN4CCCC[C@H]34)[C@@H]2C1 | 9.25
68 | CCCCCCCCCCCCN(CC(O)CC)CC(O)CC (stereo not given) | 5.6
69 | Nc1ccc(S(=O)(=O)Nc2cccnn2)cc1 | 1.3
70 | Cc1cc(C)nc(N)n1 | 4.93
71 | O=P([O-])(O)C([NH2+]Cc1cccnc1)c1ccccc1O (stereo not given) | 3.14
72 | O=C([O-])C#CCN1CCOCC1 | 5.57
73 | NC(=O)CC(=O)c1ccccn1 | 8.23
74 | CCC(C)(C)Nc1ccccc1 | 6.55
75 | Cc1nc2c(C)ccc([N+](=O)[O-])c2c(NCCC[NH+](C)C)c1C | 6.67
76 | CNc1cnc2ccccc2n1 | 4.1
77 | [S-]c1ccnc2ccccc12 | 8.83
78 | CN(C)/N=C(\N)CC[Si](C)(C)C | 10.2
79 | CCOC(=O)c1ccc(N)cc1 | 2.58
80 | Nc1cc(/C=C/c2ccccc2)nc2ccccc12 | 9.3
81 | Cn1cc(N)cc1C(=O)[O-] | 7

Row | SMILES | pKa
82 | CN(C)Cc1cc(/N=N/c2ccccc2)ccc1[O-] | 10.2
83 | O=[N+]([O-])c1ccc2[nH]c(CCl)nc2c1 | 2.21
84 | Nc1ccc(O)cc1O | 5.7
85 | CC(N)CCCc1ccc(O)cc1 (stereo not given) | 9.4
86 | Cc1ccnc(NS(=O)(=O)c2ccc(N)cc2)n1 | 2.08
87 | C=C(C)C(=O)OCCNCCCC | 9.12
88 | C(=C\c1ccncc1)/c1ccccc1 | 5.97
89 | Nc1ccc(-c2ccc(/[NH+]=C/c3ccccc3O)cc2)cc1 | 4.75
90 | Cc1cncc(C)[nH+]1 | -4.48
91 | Nc1cc(-c2ccccc2)nc2ccccc12 | 8.2
92 | C1CCN(C2CC[NH2+]CC2)CC1 | 7.97
93 | Brc1cc2cccnc2c2ncccc12 | 4.2
94 | CCc1c(-c2ccccc2)nn(C2CCN(C)CC2)c1[O-] | 9.15
95 | CCCCOC(=O)c1ccc(N)cc1 | 2.47
96 | CCCCCCCCN(CCO)CC(O)CC (stereo not given) | 8.3
97 | Cc1cccc2cccnc12 | 4.87
98 | SCc1c[nH]cn1 | 6.54
99 | CC(C=C(c1cccs1)c1cccs1)N1CCCCCC1 (stereo not given) | 7.96
100 | CCc1cccnn1 | 3.58
101 | c1ccc2c(c1)nnc1ccccc12 | 2.2
102 | CN1CSC[C@H]1C(=O)[O-] | 6.6
103 | CNc1cccc(C)c1 | 4.94

Row | SMILES | pKa
104 | CCCCCCN(CCO)CC(C)O (stereo not given) | 9
105 | NC1=N[C@H]2C[C@@H](N1)N[C@@H]2C(=O)[O-] | 12.6
106 | Nc1nsc2ccccc12 | 2.45
107 | Nc1cccc2nccnc12 | 2.62
108 | Cc1cnc2c(c1)cc(C)c1cc(C)cnc12 | 5.27
109 | CCCCCCCCCCNCc1ccc(C)cc1 | 9.48
110 | CCCCSC1=NCCN1 | 9
111 | COc1ccc(N)cn1 | 4.24
112 | Nc1ccc(Br)cc1Br | 2.3
113 | COc1nc(N)c2cnn(C)c2n1 | 3.66
114 | Cc1nc(NCc2ccco2)c2cn[nH]c2n1 | 4.65
115 | Nc1cccc(I)c1 | 3.59
116 | COc1cc(C)ncn1 | 3.65
117 | O=C1CC[C@H]2N1CC[C@H]1c3ccccc3CCN12 | 4.89
118 | O=C(Cc1ccccc1Nc1c(Cl)cccc1Cl)OCCN1CCOCC1 | 7.52
119 | Clc1cc2cccnc2c2ncccc12 | 4.22
120 | CCN(CC)c1ccc([N+](=O)[O-])cc1 | 1.7
121 | C[C@H](N)CCC(=O)[O-] | 10.4
122 | c1nc(NC2CCCCC2)c2[nH]cnc2n1 | 4.2
123 | Cn1c(=S)ccc2ccccc21 | -1.6
124 | CCN(CC)CCSC(C)C | 9.32
125 | c1ccc2c(c1)CCNC2 | 9.48
